Source: patent US8501946B2 (Glaxo Group Limited, priority 2009, dated 2013)

Assays:
[1] = molecular target: T1, human recombinant P2X7 receptors (Homo sapiens, UniProt Q99572); experiment: Ethidium Accumulation Assay 1 (HEK293 cells, ATP-induced ethidium uptake); type: cell-based; conditions: HEK293 cells expressing human P2X7; 1 mM ATP; sometimes mean of more than one measurement; read-out: Assay 1 (antagonist pIC50 for blocking ATP responses) (converted)
T1 construct: expressed in transfected cells
T1 sequence (Q99572 1-595): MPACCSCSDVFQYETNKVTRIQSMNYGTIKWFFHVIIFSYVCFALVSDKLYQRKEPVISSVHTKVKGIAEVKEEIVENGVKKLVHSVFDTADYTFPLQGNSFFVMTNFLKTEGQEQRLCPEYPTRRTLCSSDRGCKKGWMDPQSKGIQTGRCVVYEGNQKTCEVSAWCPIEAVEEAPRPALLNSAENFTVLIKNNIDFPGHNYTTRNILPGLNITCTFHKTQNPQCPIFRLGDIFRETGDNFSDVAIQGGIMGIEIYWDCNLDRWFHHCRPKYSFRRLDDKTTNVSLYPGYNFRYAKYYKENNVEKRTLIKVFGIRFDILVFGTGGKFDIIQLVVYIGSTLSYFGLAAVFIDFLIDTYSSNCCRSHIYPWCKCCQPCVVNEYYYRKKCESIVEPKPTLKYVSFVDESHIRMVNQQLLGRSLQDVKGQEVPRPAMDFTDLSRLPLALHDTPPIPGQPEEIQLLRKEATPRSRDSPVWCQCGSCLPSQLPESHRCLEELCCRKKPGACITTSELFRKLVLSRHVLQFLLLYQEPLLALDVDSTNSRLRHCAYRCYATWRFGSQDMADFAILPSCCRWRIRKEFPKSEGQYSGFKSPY

[2] = molecular target: T1, human recombinant P2X7 receptors; experiment: Ethidium Accumulation Assay 2 (HEK293 cells, ATP-induced ethidium uptake); type: cell-based; conditions: HEK293 cells expressing human P2X7
In short: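 Stably transfected HEK293 cells expressing human P2X7 were preincubated with test antagonist 30 min at room temperature (19-21° C.), then stimulated with ATP solution (50 μM). Ethidium uptake was measured, and pIC50 values for block of ATP responses were derived by iterative curve fitting.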

[3] = sometimes mean of more than one measurement, read-out: Assay 2 (antagonist pIC50 for blocking ATP responses) (converted)

Row | SMILES | IC50 [1] | IC50 [2, 3] | IC50 ([2]; read-out: Assay 2 (antagonist pIC50 for blocking ATP responses), numeric value (converted))
1 | O=C(c1ccc(Cl)c(F)c1Cl)N1CCn2c(nnc2-c2cnccn2)C1 [Example 111, 7-[(2,4-Dichloro-3-fluorophenyl)carbonyl]-3-(2-pyrazinyl)-5,6,7,8-tetrahydro[1,2,4]triazolo[4,3-a]pyrazine] | < 10 nM | < 10 nM | –
2 | O=C(c1ccc(F)cc1Cl)N1CCn2c(nnc2-c2cccc(Cl)c2)C1 [Example 126, 7-[(2-chloro-4-fluorophenyl)carbonyl]-3-(3-chlorophenyl)-5,6,7,8-tetrahydro[1,2,4]triazolo[4,3-a]pyrazine] | < 100 nM | < 100 nM | –
3 | Cc1nnc2n1CCN(C(=O)c1cccc(C(F)(F)F)c1Cl)C2 [Example 15, 7-{[2-Chloro-3-(trifluoromethyl)phenyl]carbonyl}-3-methyl-5,6,7,8-tetrahydro[1,2,4]triazolo[4,3-a]pyrazine] | < 100 nM | < 501 nM | –
4 | O=C(c1cccc(C(F)(F)F)c1Cl)N1CCn2cnnc2C1 [Example 3, 7-{[2-chloro-3-(trifluoromethyl)phenyl]carbonyl}-5,6,7,8-tetrahydro[1,2,4]triazolo [4,3-a]pyrazine] | < 501 nM | < 501 nM | –
5 | O=C(c1ccc(F)c(Cl)c1Cl)N1CCn2c(nnc2-c2ccc(F)cn2)C1 [Example 114, 7-[(2,3-Dichloro-4-fluorophenyl)carbonyl]-3-(5-fluoro-2-pyridinyl)-5,6,7,8-tetrahydro[1,2,4]triazolo[4,3-a]pyrazine] | < 10 nM | < 10 nM | –
6 | O=C(c1ccc(Cl)c(F)c1Cl)N1CCn2c(nnc2-c2cccnc2O)C1 [Example 171, 3-{7-[(2,4-dichloro-3-fluorophenyl)carbonyl]-5,6,7,8-tetrahydro[1,2,4]triazolo[4,3-a]pyrazin-3-yl}-2-pyridinol] | – | < 100 nM | –
7 | O=C(c1cccc(C(F)(F)F)c1Cl)N1CCn2c(nnc2-c2cccnn2)C1 [Example 44, 7-{[2-chloro-3-(trifluoromethyl)phenyl]carbonyl}-3-(3-pyridazinyl)-5,6,7,8-tetrahydro[1,2,4]triazolo [4,3-a]pyrazine] | < 100 nM | < 100 nM | –
8 | O=C(c1ccc(F)cc1Br)N1CCn2c(nnc2-c2cnccn2)C1 [Example 147, 7-[(2-bromo-4-fluorophenyl)carbonyl]-3-(2-pyrazinyl)-5,6,7,8-tetrahydro[1,2,4]triazolo[4,3-a]pyrazine] | – | < 10 nM | –
9 | Cc1c(Cl)cccc1C(=O)N1CCn2c(nnc2-c2nccs2)C1 [Example 200, 7-[(3-Chloro-2-methylphenyl)carbonyl]-3-(1,3-thiazol-2-yl)-5,6,7,8-tetrahydro[1,2,4]triazolo[4,3-a]pyrazine] | – | < 100 nM | –
10 | O=C(c1ccc(Cl)c(F)c1Cl)N1CCn2c(nnc2-c2cncs2)C1 [Example 185, 7-[(2,4-Dichloro-3-fluorophenyl)carbonyl]-3-(1,3-thiazol-5-yl)-5,6,7,8-tetrahydro[1,2,4]triazolo[4,3-a]pyrazine] | – | < 100 nM | –
11 | Cc1ccnc(-c2nnc3n2CCN(C(=O)c2ccc(Cl)c(F)c2Cl)C3)c1 [Example 172, 7-[(2,4-dichloro-3-fluorophenyl)carbonyl]-3-(4-methyl-2-pyridinyl)-5,6,7,8-tetrahydro[1,2,4]triazolo[4,3-a]pyrazine] | – | < 100 nM | –
12 | Cc1csc(-c2nnc3n2CCN(C(=O)c2ccc(Cl)c(F)c2Cl)C3)n1 [Example 191, 7-[(2,4-Dichloro-3-fluorophenyl)carbonyl]-3-(4-methyl-1,3-thiazol-2-yl)-5,6,7,8-tetrahydro[1,2,4]triazolo[4,3-a]pyrazine] | – | < 100 nM | –
13 | Cc1ccc(-c2nnc3n2CCN(C(=O)c2cccc(C(F)(F)F)c2Cl)C3)o1 [Example 159, 7-{[2-chloro-3-(trifluoromethyl)phenyl]carbonyl}-3-(5-methyl-2-furanyl)-5,6,7,8-tetrahydro[1,2,4]triazolo[4,3-a]pyrazine] | – | < 10 nM | –
14 | O=C(c1ccc(Cl)cc1Cl)N1CCn2c(nnc2-c2ncns2)C1 [Example 205, 7-[(2,4-dichlorophenyl)carbonyl]-3-(1,2,4-thiadiazol-5-yl)-5,6,7,8-tetrahydro[1,2,4]triazolo[4,3-a]pyrazine] | – | < 100 nM | –
15 | O=C(c1ccc(Cl)c(F)c1Cl)N1CCn2c(nnc2-c2ncns2)C1 [Example 186, 7-[(2,4-Dichloro-3-fluorophenyl)carbonyl]-3-(1,2,4-thiadiazol-5-yl)-5,6,7,8-tetrahydro[1,2,4]triazolo[4,3-a]pyrazine] | – | < 10 nM | –
16 | Cc1nnsc1-c1nnc2n1CCN(C(=O)c1ccc(Cl)c(F)c1Cl)C2 [Example 179, 7-[(2,4-Dichloro-3-fluorophenyl)carbonyl]-3-(4-methyl-1,2,3-thiadiazol-5-yl)-5,6,7,8-tetrahydro[1,2,4]triazolo[4,3-a]pyrazine] | – | – | 631 nM
17 | O=C(c1cccc(C(F)(F)F)c1Cl)N1CCn2c(nnc2-c2ncccc2O)C1 [Example 166, 2-(7-{[2-Chloro-3-(trifluoromethyl)phenyl]carbonyl}-5,6,7,8-tetrahydro[1,2,4]triazolo[4,3-a]pyrazin-3-yl)-3-pyridinol] | – | < 10 nM | –
18 | O=C(c1cccc(C(F)(F)F)c1Cl)N1CCn2c(nnc2-c2ccc(F)cn2)C1 [Example 45, 7-{[2-chloro-3-(trifluoromethyl)phenyl]carbonyl}-3-(5-fluoro-2-pyridinyl)-5,6,7,8-tetrahydro[1,2,4]triazolo[4,3-a]pyrazine] | < 10 nM | < 10 nM | –
19 | CCc1nnc2n1CCN(C(=O)c1cccc(C(F)(F)F)c1Cl)C2 [Example 4, 7-{[2-chloro-3-(trifluoromethyl)phenyl]carbonyl}-3-ethyl-5,6,7,8-tetrahydro[1,2,4]triazolo [4,3-a]pyrazine] | < 100 nM | < 100 nM | –
20 | Cc1c(C(=O)N2CCn3c(nnc3-c3cnccn3)C2)ccc(F)c1Cl [Example 146, 7-[(3-chloro-4-fluoro-2-methylphenyl)carbonyl]-3-(2-pyrazinyl)-5,6,7,8-tetrahydro[1,2,4]triazolo[4,3-a]pyrazine] | – | < 10 nM | –
21 | Cc1ccc(-c2nnc3n2CCN(C(=O)c2ccc(F)c(Cl)c2Cl)C3)o1 [Example 167, 7-[(2,3-Dichloro-4-fluorophenyl)carbonyl]-3-(5-methyl-2-furanyl)-5,6,7,8-tetrahydro[1,2,4]triazolo[4,3-a]pyrazine] | – | < 100 nM | –
22 | COc1ccnc(-c2nnc3n2CCN(C(=O)c2ccc(Cl)c(F)c2Cl)C3)c1 [Example 174, 7-[(2,4-dichloro-3-fluorophenyl)carbonyl]-3-[4-(methyloxy)-2-pyridinyl]-5,6,7,8-tetrahydro[1,2,4]triazolo[4,3-a]pyrazine] | – | < 10 nM | –
23 | Cc1scnc1-c1nnc2n1CCN(C(=O)c1ccc(Cl)c(F)c1Cl)C2 [Example 197, 7-[(2,4-Dichloro-3-fluorophenyl)carbonyl]-3-(5-methyl-1,3-thiazol-4-yl)-5,6,7,8-tetrahydro[1,2,4]triazolo[4,3-a]pyrazine] | – | < 10 nM | –
